Measured values reported in patent US7786163B2, “Constrained cyano compounds” (Forest Laboratories Holdings Limited (BM), priority 2004, dated 2010).
Where a name gives a salt, the structure may show the parent alone.

Experiments:
Format in all cases: biochemical
human FAP = target: T1, human FAP (Homo sapiens, UniProt Q12884); experiment: FAP inhibition assay (Ala-Pro AMC), selectivity vs DPP-IV; settings: selectivity for DPP-IV relative to FAP
T1 construct: The full length cDNAs for human DPP-VII, DPP-VIII, DPP-IX, and FAP were obtained from Open Biosystems; 6xHis (N); made in house; host or cells: S9 (Sf9) insect cells, baculovirus (pFastBac, Bac-to-Bac)
T1 sequence (Q12884 1-760): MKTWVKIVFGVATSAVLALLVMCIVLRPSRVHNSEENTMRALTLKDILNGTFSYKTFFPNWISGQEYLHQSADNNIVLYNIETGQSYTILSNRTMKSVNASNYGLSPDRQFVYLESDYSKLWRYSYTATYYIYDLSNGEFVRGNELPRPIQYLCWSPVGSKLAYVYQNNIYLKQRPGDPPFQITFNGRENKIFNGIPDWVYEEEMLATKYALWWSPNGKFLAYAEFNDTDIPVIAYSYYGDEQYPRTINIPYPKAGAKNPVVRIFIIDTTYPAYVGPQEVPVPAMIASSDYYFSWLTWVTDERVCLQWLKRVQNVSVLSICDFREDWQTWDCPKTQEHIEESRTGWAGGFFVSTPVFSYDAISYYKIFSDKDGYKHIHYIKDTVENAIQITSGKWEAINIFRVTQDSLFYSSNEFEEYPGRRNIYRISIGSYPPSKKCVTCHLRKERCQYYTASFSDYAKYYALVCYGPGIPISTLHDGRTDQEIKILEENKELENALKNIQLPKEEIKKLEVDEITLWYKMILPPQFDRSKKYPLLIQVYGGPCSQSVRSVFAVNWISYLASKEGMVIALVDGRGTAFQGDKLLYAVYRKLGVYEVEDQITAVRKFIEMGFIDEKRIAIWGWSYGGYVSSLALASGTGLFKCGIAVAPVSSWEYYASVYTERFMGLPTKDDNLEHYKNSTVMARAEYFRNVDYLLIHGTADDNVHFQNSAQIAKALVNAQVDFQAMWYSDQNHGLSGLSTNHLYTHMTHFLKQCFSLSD
Description: (§1) Materials. S9 insect cells and Sf-900 II SFM media were from Invitrogen. Anti-FLAG M2 immunoaffinity gel was from Sigma. Gly-Pro-AMC, Lys-Pro AMC, and Ala-Pro AMC were from Enzyme Systems. IC50 calculations were performed by non-linear regression analysis using Prism software (GraphPad).
(§2) Preparation of DPP-VII DPP-VIII DPP-IX, and FAP baculovirus constructs. The full length cDNAs for human DPP-VII, DPP-VIII, DPP-IX, and FAP were obtained from Open Biosystems. The cDNAs were cloned into the pFastBac vector with the addition of an N-terminal FLAG tag on DPP-VII, C-terminal 6× His tags on DPP-VIII and DPP-IX, and an N-terminal 6× His tag on FAP (Sun 2002, Qi 2003, and Chen 2004). Baculovirus was prepared using the Bac-to-Bac Baculovirus Expression System (Invitrogen). The cDNAs in the final baculovirus constructs were sequence verified.
(§3) Baculovirus expression. S9 cells were grown to mid log phase at 27C with shaking at 125 RPM and then adjusted to 2×10E6/ml just prior to baculovirus infection. Infection with DPP-VII, DPP-VIII, DPP-IX, and FAP baculoviral constructs were all performed at an MOI of 4. The infected cells were grown for 48 hours and the cell pellets harvested and frozen until purification. DPP-VII was purified using anti-FLAG immunoaffinity gel according to the manufacturer's instructions. DPP-VIII, DPP-IX, and FAP were purified using a B-PER 6× His Fusion Protein Column Purification Kit from Pierce.
(§4) C50 assay. Recombinant DPPs were diluted in reaction buffer to give fluorescence values of 5000-20000 counts in the “enzyme only wells” 20 min after addition of substrate at 27° C. Reaction buffers were 25 mM (2-(4-Morpholino)-Ethane Sulfonic Acid), pH 5.5 for DPP-VII, 25 mM Tris, pH 8, 1% Triton X-100, 100 mM NaCl for DPP-VIII, and 25 mM Tris pH 8 for DPP-IX and FAP. Test wells in a 96-well microtiter plate contained 88 uL of diluted DPP and 2.5 ul of titrated compound in 50 mM glycine, pH 2.6. “Enzyme only” wells contained 88 uL of diluted DPP and 2.5 ul of glycine buffer. “No enzyme” wells contained 88 uL of reaction buffer without DPP and 2.5 ul of glycine buffer. All assays were done in triplicate. The plate was incubated at 27° C. for 10 min and then cooled on ice for 10 min. Ten microliters of substrate diluted in reaction buffer (40 uM final concentration) without Triton or NaCl were then added to all wells followed by incubation at 27C for 20 min. Substrates were Lys-Pro AMC for DPP-VII, and Ala-Pro AMC for DPP-VIII, DPP-IX, and FAP. Fluorescence in each well was measured at settings of 380/460 nm.
(§5) Compounds of the invention were tested for inhibition of DPP-IV according to Example 4 and DPP-VII, VIII, IX and FAP according to the present methods.

human DPP-IX = target: T2, human DPP-IX (Homo sapiens, UniProt Q86TI2); experiment: DPP-IX inhibition assay (Ala-Pro AMC), selectivity vs DPP-IV; settings: selectivity for DPP-IV relative to DPP-IX
T2 construct: The full length cDNAs for human DPP-VII, DPP-VIII, DPP-IX, and FAP were obtained from Open Biosystems; 6xHis (C); made in house; host or cells: S9 (Sf9) insect cells, baculovirus (pFastBac, Bac-to-Bac)
T2 sequence (Q86TI2 whole entry): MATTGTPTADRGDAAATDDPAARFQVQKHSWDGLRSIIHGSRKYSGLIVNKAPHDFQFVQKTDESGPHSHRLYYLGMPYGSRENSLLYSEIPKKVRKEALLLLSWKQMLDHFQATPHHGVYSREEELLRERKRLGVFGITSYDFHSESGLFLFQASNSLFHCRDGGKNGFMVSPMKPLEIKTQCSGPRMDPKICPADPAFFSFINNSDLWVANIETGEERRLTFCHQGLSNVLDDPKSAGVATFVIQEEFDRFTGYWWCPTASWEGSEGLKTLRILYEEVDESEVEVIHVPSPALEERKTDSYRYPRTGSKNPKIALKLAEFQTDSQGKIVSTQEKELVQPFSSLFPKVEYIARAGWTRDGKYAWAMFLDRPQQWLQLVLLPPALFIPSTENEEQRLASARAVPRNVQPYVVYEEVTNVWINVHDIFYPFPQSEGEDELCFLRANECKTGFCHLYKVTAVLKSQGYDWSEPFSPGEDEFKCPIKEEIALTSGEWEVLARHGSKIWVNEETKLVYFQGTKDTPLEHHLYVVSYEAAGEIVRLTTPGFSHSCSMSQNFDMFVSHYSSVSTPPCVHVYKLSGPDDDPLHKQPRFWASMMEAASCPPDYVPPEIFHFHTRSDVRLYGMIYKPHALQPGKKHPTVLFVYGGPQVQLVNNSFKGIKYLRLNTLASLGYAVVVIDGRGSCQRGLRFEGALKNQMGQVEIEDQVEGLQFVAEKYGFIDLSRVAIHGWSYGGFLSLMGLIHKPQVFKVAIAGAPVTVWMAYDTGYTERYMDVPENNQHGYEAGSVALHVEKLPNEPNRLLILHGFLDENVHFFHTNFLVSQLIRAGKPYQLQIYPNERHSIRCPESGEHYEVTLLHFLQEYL
Description: as §1, §2, §3, §4, §5

human DPP-VIII = target: T3, human DPP-VIII (Homo sapiens, UniProt Q6V1X1); experiment: DPP-VIII inhibition assay (Ala-Pro AMC), selectivity vs DPP-IV; settings: selectivity for DPP-IV relative to DPP-VIII
T3 construct: The full length cDNAs for human DPP-VII, DPP-VIII, DPP-IX, and FAP were obtained from Open Biosystems; 6xHis (C); made in house; host or cells: S9 (Sf9) insect cells, baculovirus (pFastBac, Bac-to-Bac)
T3 sequence (Q6V1X1 whole entry): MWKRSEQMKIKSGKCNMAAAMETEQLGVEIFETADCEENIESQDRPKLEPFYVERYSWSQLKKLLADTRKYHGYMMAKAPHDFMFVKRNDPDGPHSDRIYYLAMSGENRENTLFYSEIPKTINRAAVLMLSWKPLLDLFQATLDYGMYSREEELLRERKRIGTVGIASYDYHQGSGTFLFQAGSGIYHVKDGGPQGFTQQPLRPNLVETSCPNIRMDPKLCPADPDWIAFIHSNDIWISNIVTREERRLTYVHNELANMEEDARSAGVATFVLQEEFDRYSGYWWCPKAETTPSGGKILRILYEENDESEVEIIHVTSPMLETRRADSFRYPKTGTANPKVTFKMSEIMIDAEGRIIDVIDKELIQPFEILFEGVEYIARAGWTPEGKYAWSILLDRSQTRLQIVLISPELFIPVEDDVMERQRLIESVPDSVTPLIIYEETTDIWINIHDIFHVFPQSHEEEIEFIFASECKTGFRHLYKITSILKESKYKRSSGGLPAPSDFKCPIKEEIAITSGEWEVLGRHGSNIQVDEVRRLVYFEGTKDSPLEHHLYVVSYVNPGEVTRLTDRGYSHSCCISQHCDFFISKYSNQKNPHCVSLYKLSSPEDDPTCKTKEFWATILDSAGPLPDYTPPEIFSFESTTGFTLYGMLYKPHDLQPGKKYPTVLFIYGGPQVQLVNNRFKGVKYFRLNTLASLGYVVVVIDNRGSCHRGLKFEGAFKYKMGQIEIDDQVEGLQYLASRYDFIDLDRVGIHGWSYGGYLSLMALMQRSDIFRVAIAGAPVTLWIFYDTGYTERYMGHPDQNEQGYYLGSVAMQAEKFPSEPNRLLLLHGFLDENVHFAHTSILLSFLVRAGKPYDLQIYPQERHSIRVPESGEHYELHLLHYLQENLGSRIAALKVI
Description: as §1, §2, §3, §4, §5

human DPP-VII = target: T4, human DPP-VII (Homo sapiens, UniProt Q9UHL4); experiment: DPP-VII inhibition assay (Lys-Pro AMC), selectivity vs DPP-IV; settings: selectivity for DPP-IV relative to DPP-VII
T4 construct: The full length cDNAs for human DPP-VII, DPP-VIII, DPP-IX, and FAP were obtained from Open Biosystems; FLAG (N); made in house; host or cells: S9 (Sf9) insect cells, baculovirus (pFastBac, Bac-to-Bac)
Description: as §1, §2, §3, §4, §5

SMILES	Selectivity Ratios FAP (human FAP)	Selectivity Ratios DPP-IX (human DPP-IX)	Selectivity Ratios DPP-VIII (human DPP-VIII)	Selectivity Ratios DPP-VII (human DPP-VII)
Cl.N#C[C@@H]1CS[C@H]2C[C@@H](N)C(=O)N12 [Compound 7, 6-Amino-5-oxo-hexahydro-pyrrolo[2,1-b]thiazole-3-carbonitrile]	C (C ≧ 100)	A (A ≦ 10)	B (10 < B < 100)	C (C ≧ 100)
CC[C@@]1(N)C[C@@H]2SC[C@@H](C#N)N2C1=O.Cl [Compound 21, 6-Amino-6-ethyl-5-oxo-hexahydro-pyrrolo[2,1-b]thiazole-3-carbonitrile hydrochloride]	C (C ≧ 100)	A (A ≦ 10)	B (10 < B < 100)	C (C ≧ 100)
CC(C)[C@@]1(N)C[C@@H]2SC[C@@H](C#N)N2C1=O.Cl [Compound 22, 6-Amino-6-isopropyl-5-oxo-hexahydro-pyrrolo[2,1-b]thiazole-3-carbonitrile hydrochloride]	C (C ≧ 100)	A (A ≦ 10)	B (10 < B < 100)	C (C ≧ 100)
Cl.N#C[C@@H]1CS[C@H]2C[C@](N)(C3CCCC3)C(=O)N12 [Compound 23, 6-Amino-6-cyclopentyl-5-oxo-hexahydro-pyrrolo[2,1-b]thiazole-3-carbonitrile hydrochloride]	C (C ≧ 100)	A (A ≦ 10)	A (A ≦ 10)	B (10 < B < 100)
Cl.N#C[C@@H]1CS[C@H]2C[C@](N)(C3CCCCC3)C(=O)N12 [Compound 24, 6-Amino-6-cyclohexyl-5-oxo-hexahydro-pyrrolo[2,1-b]thiazole-3-carbonitrile hydrochloride]	C (C ≧ 100)	A (A ≦ 10)	A (A ≦ 10)	B (10 < B < 100)
CC(C)C[C@@]1(N)C[C@@H]2SC[C@@H](C#N)N2C1=O.Cl [Compound 25, 6-Amino-6-isobutyl-5-oxo-hexahydro-pyrrolo[2,1-b]thiazole-3-carbonitrile hydrochloride]	C (C ≧ 100)	A (A ≦ 10)	B (10 < B < 100)	A (A ≦ 10)
CC[C@H](C)[C@@]1(N)C[C@@H]2SC[C@@H](C#N)N2C1=O.Cl [Compound 26, 6-Amino-6-sec-butyl-5-oxo-hexahydro-pyrrolo[2,1-b]thiazole-3-carbonitrile hydrochloride]	C (C ≧ 100)	A (A ≦ 10)	B (10 < B < 100)	B (10 < B < 100)
Cl.N#C[C@@H]1CS[C@H]2C[C@](N)(CCc3ccccc3)C(=O)N12 [Compound 27, 6-Amino-5-oxo-6-phenethyl-hexahydro-pyrrolo[2,1-b]thiazole-3-carbonitrile hydrochloride]	B (10 < B < 100)	A (A ≦ 10)	A (A ≦ 10)	A (A ≦ 10)
N#CC1CSC2CC(N)(Cc3ccccc3)C(=O)N12 (centres unmarked) [Compound 28, 6-Amino-6-benzyl-5-oxo-hexahydro-pyrrolo[2,1-b]thiazole-3-carbonitrile hydrochloride]	B (10 < B < 100)	B (10 < B < 100)	B (10 < B < 100)	B (10 < B < 100)
Cl.N#C[C@@H]1CS[C@H]2C[C@](N)(CC3CCCCC3)C(=O)N12 [Compound 29, 6-Amino-6-cyclohexylmethyl-5-oxo-hexahydro-pyrrolo[2,1-b]thiazole-3-carbonitrile hydrochloride]	C (C ≧ 100)	A (A ≦ 10)	A (A ≦ 10)	A (A ≦ 10)
Cl.N#C[C@@H]1CS[C@H]2C[C@](N)(c3ccc(F)cc3)C(=O)N12 [Compound 30, 6-Amino-6-(4-fluoro-phenyl)-5-oxo-hexahydro-pyrrolo[2,1-b]thiazole-3-carbonitrile hydrochloride]	B (10 < B < 100)	A (A ≦ 10)	B (10 < B < 100)	B (10 < B < 100)
Cl.N#C[C@@H]1CS[C@H]2C[C@](N)(c3ccccc3)C(=O)N12 [Compound 31, 6-Amino-5-oxo-6-phenyl-hexahydro-pyrrolo[2,1-b]thiazole-3-carbonitrile hydrochloride]	C (C ≧ 100)	B (10 < B < 100)	C (C ≧ 100)	C (C ≧ 100)
Cl.N#C[C@@H]1CS[C@H]2C[C@@](N)(C3CCCC3)C(=O)N12 [Compound 33]	B (10 < B < 100)	A (A ≦ 10)	B (10 < B < 100)	B (10 < B < 100)
Cl.N#C[C@@H]1CS[C@H]2C[C@@](N)(c3ccccc3)C(=O)N12 [Compound 34]	C (C ≧ 100)	A (A ≦ 10)	B (10 < B < 100)	C (C ≧ 100)
